{
  "source": "patent US20100093748A1",
  "about": "“SUBSTITUTED PIPERIDINES HAVING PROTEIN KINASE INHIBITING ACTIVITY” (ASTEX THERAPEUTICS LIMITED, priority 2006, published 2010)",
  "key": {"PKB-PIF fusion protein": {"molecular_target": "T1, PKB-PIF fusion protein (Homo sapiens, UniProt P31751)", "T1 construct": "PIF (fusion partner); made in house", "T1 sequence (P31751 with tags, fused parts or gaps limits assumed)": "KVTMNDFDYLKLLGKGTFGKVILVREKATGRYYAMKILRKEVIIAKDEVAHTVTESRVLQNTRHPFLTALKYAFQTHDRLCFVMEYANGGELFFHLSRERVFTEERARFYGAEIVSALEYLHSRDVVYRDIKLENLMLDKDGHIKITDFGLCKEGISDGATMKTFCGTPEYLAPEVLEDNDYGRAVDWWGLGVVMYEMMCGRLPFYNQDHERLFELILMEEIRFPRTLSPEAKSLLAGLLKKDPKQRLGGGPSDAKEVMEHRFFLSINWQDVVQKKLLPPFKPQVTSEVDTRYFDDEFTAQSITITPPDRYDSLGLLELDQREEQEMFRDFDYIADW", "assay": "Measurement of PKB kinase inhibitory activity (IC50), radiometric filter plate assay", "format": "biochemical", "conditions": "0.6 nM enzyme, 30 μM ATP, AKTide-2T substrate, 20 minutes", "description": "The inhibition of protein kinase B (PKB) activity by compounds can be determined essentially as described by Andjelkovic et al. (Mol. Cell. Biol. 19, 5061-5072 (1999)) but using a fusion protein described as PKB-PIF and described in full by Yang et al (Nature Structural Biology 9, 940-944 (2002)). The protein is purified and activated with PDK1 as described by Yang et al. The peptide AKTide-2T (H-A-R-K-R-E-R-T-Y-S-F-G-H-H-A-OH) obtained from Calbiochem (#123900) is used as a substrate. A final concentration of 0.6 nM enzyme is used in a buffer that includes 20 mM MOPS pH 7.2, 30 μM ATP/γ^33P-ATP and 25 µM substrate. Compounds are added in DMSO solution to a final DMSO concentration of 2.5%. The reaction is allowed to proceed for 20 minutes before addition of excess orthophosphoric acid to quench activity. The reaction mixture is transferred to a phosphocellulose filter plate where the peptide binds and the unused ATP is washed away. After washing, scintillant is added and the incorporated activity measured by scintillation counting.\nThe % inhibition of the PKB activity is calculated and plotted in order to determine the concentration of test compound required to inhibit 50% of the PKB activity (IC50)."}, "PKA catalytic domain": {"molecular_target": "T2, PKA catalytic domain (Homo sapiens, UniProt P17612)", "T2 construct": "using the PKA catalytic domain from Upstate Biotechnology (#14-440); purchased Upstate Biotechnology 14-440", "assay": "Measurement of PKA kinase inhibitory activity (IC50), radiometric filter plate assay", "format": "biochemical", "conditions": "1 nM enzyme, 40 μM ATP, 20 minutes", "method": "Compounds of the invention can be tested for PK inhibitory activity using the PKA catalytic domain from Upstate Biotechnology (#14-440) and the 9 residue PKA specific peptide (GRTGRRNSI), also from Upstate Biotechnology (#12-257), as the substrate. A final concentration of 1 nM enzyme is used in a buffer that includes 20 mM MOPS pH 7.2, 40 μM ATP/γ^33P-ATP and […] substrate. Compounds are added in dimethylsulphoxide (DMSO) solution to a final DMSO concentration of 2.5%. The reaction is allowed to proceed for 20 minutes before addition of excess orthophosphoric acid to quench activity. Unincorporated γ^33P-ATP is then separated from phosphorylated proteins on a Millipore MAPH filter plate. The plates are washed, scintillant is added and the plates are then subjected to counting on a Packard Topcount.\nThe % inhibition of the PKA activity is calculated and plotted in order to determine the concentration of test compound required to inhibit 50% of the PKA activity (IC50)."}, "[1]": {"test_system": "phosphorylation of Serine-9 residue in Glycogen Synthase Kinase-3beta as surrogate marker of cellular PKB (Akt) activity", "assay": "In vitro MDA-MB-468 human breast adenocarcinoma GSK-3 phosphorylation assay", "format": "cell-based", "conditions": "MDA-MB-468 cells, 2 hours compound incubation, mean IC50, read-out: Cell pGSK3b IC50", "in_short": "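MDA-MB-468 cells (5000/well) were treated with compound for 2 h at 37° C, then fixed and immunostained for phospho-Ser9 GSK-3β with an Alexa Fluor 488 secondary antibody. Fluorescence was quantified on an Acumen Explorer. IC50 came from a background-corrected 4-parameter logistic fit with minimum set to zero; obvious outliers were excluded from means.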"}},
  "data": [
    {"compound": "NC1(c2nc3cccc(F)c3[nH]2)CCN(c2ncnc3[nH]ccc23)CC1", "note": "[Example 1, 4-(7-Fluoro-1H-benzoimidazol-2-yl)-1-(7H-pyrrolo[2,3-d]pyrimidin-4-yl)-piperidin-4-ylamine]", "values": [
      {"measurement": "IC50", "setting": "PKB-PIF fusion protein", "result": "< 100", "unit": "nM"},
      {"measurement": "IC50", "setting": "PKA catalytic domain", "result": "< 1000", "unit": "nM"}
    ]},
    {"compound": "NC1(c2nc3cc(F)c(F)cc3[nH]2)CCN(c2ncnc3[nH]ccc23)CC1", "note": "[Example 2, 4-(5,6-Difluoro-1H-benzoimidazol-2-yl)-1-(7H-pyrrolo[2,3-d]pyrimidin-4-yl)-piperidin-4-ylamine]", "values": [
      {"measurement": "IC50", "setting": "PKB-PIF fusion protein", "result": "< 100", "unit": "nM"},
      {"measurement": "IC50", "setting": "PKA catalytic domain", "result": "< 1000", "unit": "nM"}
    ]},
    {"compound": "NC1(c2nc3ccc(F)c(F)c3[nH]2)CCN(c2ncnc3[nH]ccc23)CC1", "note": "[Example 3, 4-(6,7-Difluoro-1H-benzoimidazol-2-yl)-1-(7H-pyrrolo[2,3-d]pyrimidin-4-yl)-piperidin-4-ylamine]", "values": [
      {"measurement": "IC50", "setting": "PKB-PIF fusion protein", "result": "< 100", "unit": "nM"},
      {"measurement": "IC50", "setting": "PKA catalytic domain", "result": "< 1000", "unit": "nM"}
    ]},
    {"compound": "Cc1cccc2nc(C3(N)CCN(c4ncnc5[nH]ccc45)CC3)[nH]c12", "note": "[Example 4, 4-(7-Methyl-1H-benzoimidazol-2-yl)-1-(7H-pyrrolo[2,3-d]pyrimidine-4-yl)-piperidin-4-ylamine]", "values": [
      {"measurement": "IC50", "setting": "PKB-PIF fusion protein", "result": "< 100", "unit": "nM"},
      {"measurement": "IC50", "setting": "PKA catalytic domain", "result": "< 1000", "unit": "nM"}
    ]},
    {"compound": "NC1(c2nc3ccc(F)cc3[nH]2)CCN(c2ncnc3[nH]ccc23)CC1", "note": "[Example 6, 4-(6-Fluoro-1H-benzoimidazol-2-yl)-1-(7H-pyrrolo[2,3-d]pyrimidin-4-yl)-piperidin-4-ylamine]", "values": [
      {"measurement": "IC50", "setting": "PKB-PIF fusion protein", "result": "< 100", "unit": "nM"},
      {"measurement": "IC50", "setting": "[1]", "result": 560, "unit": "nM"},
      {"measurement": "IC50", "setting": "PKA catalytic domain", "result": "< 1000", "unit": "nM"}
    ]},
    {"compound": "NC1(c2nc3cc(F)cc(F)c3[nH]2)CCN(c2ncnc3[nH]ccc23)CC1", "note": "[Example 7, 4-(5,7-Difluoro-1H-benzoimidazol-2-yl)-1-(7H-pyrrolo[2,3-d]pyrimidin-4-yl)-piperidin-4-ylamine]", "values": [
      {"measurement": "IC50", "setting": "PKB-PIF fusion protein", "result": "< 100", "unit": "nM"},
      {"measurement": "IC50", "setting": "[1]", "result": 940, "unit": "nM"}
    ]},
    {"compound": "COc1ccc2[nH]c(C3(N)CCN(c4ncnc5[nH]ccc45)CC3)nc2c1", "note": "[Example 8, 4-(5-Methoxy-1H-benzoimidazol-2-yl)-1-(7H-pyrrolo[2,3-d]pyrimidin-4-yl)-piperidin-4-ylamine]", "values": [
      {"measurement": "IC50", "setting": "PKB-PIF fusion protein", "result": "< 100", "unit": "nM"},
      {"measurement": "IC50", "setting": "PKA catalytic domain", "result": "< 1000", "unit": "nM"}
    ]},
    {"compound": "NC1(c2nc3ccccc3[nH]2)CCN(c2ncnc3[nH]ccc23)CC1", "note": "[Example 12, 4-(1H-benzoimidazol-2-yl)-1-(7H-pyrrolo[2,3-d]pyrimidin-4-yl)-piperidin-4-ylamine]", "values": [
      {"measurement": "IC50", "setting": "PKB-PIF fusion protein", "result": "< 100", "unit": "nM"},
      {"measurement": "IC50", "setting": "PKA catalytic domain", "result": "< 1000", "unit": "nM"}
    ]},
    {"compound": "Cc1ccc2nc(C3(N)CCN(c4ncnc5[nH]cnc45)CC3)[nH]c2c1", "note": "[Example 17, 4-(6-Methyl-1H-benzoimidazol-2-yl)-1-(9H-purin-6-yl)-piperidin-4-ylamine]", "values": [
      {"measurement": "IC50", "setting": "PKB-PIF fusion protein", "result": "< 100", "unit": "nM"},
      {"measurement": "IC50", "setting": "[1]", "result": 320, "unit": "nM"},
      {"measurement": "IC50", "setting": "PKA catalytic domain", "result": "< 1000", "unit": "nM"}
    ]},
    {"compound": "NC1(c2nc3ccccc3[nH]2)CCN(c2ncnc3[nH]c(=O)[nH]c23)CC1", "note": "[Example 18, 6-[4-amino-4-(1H-benzoimidazol-2-yl)-piperidin-1-yl]-7,9-dihydro-purin-8-one]", "values": [
      {"measurement": "IC50", "setting": "PKB-PIF fusion protein", "result": "< 100", "unit": "nM"},
      {"measurement": "IC50", "setting": "PKA catalytic domain", "result": "< 1000", "unit": "nM"}
    ]},
    {"compound": "NCC1(c2nc3ccccc3[nH]2)CCN(c2ncnc3[nH]ccc23)CC1", "note": "[Example 34, C-[4-(1H-Benzoimidazol-2-yl)-1-(7H-pyrrolo[2,3-d]pyrimidin-4-yl)-piperidin-4-yl]-methylamine]", "values": [
      {"measurement": "IC50", "setting": "PKB-PIF fusion protein", "result": "< 100", "unit": "nM"}
    ]},
    {"compound": "OCC1(c2nc3ccccc3[nH]2)CCN(c2ncnc3[nH]ccc23)CC1", "note": "[Example 35, [4-(1H-Benzoimidazol-2-yl)-1-(7H-pyrrolo[2,3-d]pyrimidin-4-yl)-piperidin-4-yl]-methanol]", "values": [
      {"measurement": "IC50", "setting": "PKB-PIF fusion protein", "result": "< 1000", "unit": "nM"},
      {"measurement": "IC50", "setting": "PKA catalytic domain", "result": "< 1000", "unit": "nM"}
    ]},
    {"compound": "NCC1(c2nc3ccccc3o2)CCN(c2ncnc3[nH]ccc23)CC1", "note": "[Example 36, C-[4-Benzooxazol-2-yl-1-(7H-pyrrolo[2,3-d]pyrimidin-4-yl)-piperidin-4-yl]-methylamine]", "values": [
      {"measurement": "IC50", "setting": "PKB-PIF fusion protein", "result": "< 100", "unit": "nM"}
    ]},
    {"compound": "NC1(c2nc3ccccc3o2)CCN(c2ncnc3[nH]ccc23)CC1", "note": "[Example 37, 4-Benzooxazol-2-yl-1-(7H-pyrrolo[2,3-d]pyrimidin-4-yl)-piperidin-4-ylamine]", "values": [
      {"measurement": "IC50", "setting": "PKB-PIF fusion protein", "result": "< 100", "unit": "nM"},
      {"measurement": "IC50", "setting": "PKA catalytic domain", "result": "< 1000", "unit": "nM"}
    ]},
    {"compound": "NC1(c2nc3ccccc3o2)CCN(c2ncnc3[nH]c(=O)[nH]c23)CC1", "note": "[Example 38, 6-(4-amino-4-benzooxazol-2-yl-piperidin-1-yl)-7,9-dihydro-purin-8-one]", "values": [
      {"measurement": "IC50", "setting": "PKB-PIF fusion protein", "result": "< 1000", "unit": "nM"}
    ]},
    {"compound": "NC1(c2ncc(-c3ccccc3)[nH]2)CCN(c2ncnc3[nH]ccc23)CC1", "note": "[Example 39, 4-(5-Phenyl-1H-imidazol-2-yl)-1-(7H-pyrrolo[2,3-d]pyrimidin-4-yl)-piperidin-4-ylamine]", "values": [
      {"measurement": "IC50", "setting": "PKB-PIF fusion protein", "result": "< 100", "unit": "nM"}
    ]},
    {"compound": "NC1(c2ncc(-c3ccccc3)o2)CCN(c2ncnc3[nH]ccc23)CC1", "note": "[Example 40, 4-(5-Phenyl-oxazol-2-yl)-1-(7H-pyrrolo[2,3-d]pyrimidin-4-yl)-piperidin-4-ylamine]", "values": [
      {"measurement": "IC50", "setting": "PKB-PIF fusion protein", "result": "< 1000", "unit": "nM"}
    ]},
    {"compound": "NC1(c2ncc(-c3ccccc3)[nH]2)CCN(c2ccnc3[nH]ccc23)CC1", "note": "[Example 41, 4-(5-phenyl-1H-imidazol-2-yl)-1-(1H-pyrrolo[2,3-b]pyridin-4-yl)-piperidin-4-ylamine]", "values": [
      {"measurement": "IC50", "setting": "PKB-PIF fusion protein", "result": "< 100", "unit": "nM"}
    ]}
  ]
}
